Entries after “also recorded” stand apart in the source; their conditions may differ. Read-outs that look alike come from different tables or passages of the source.
How the values were obtained:
A549 cells = assay type: cell-based, Human
Procedure: Human lung epithelial cells (A549) were seeded in a 96-well optical-bottom plate. When the cells reached 70-80% confluency, the cells were treated with the compounds (DPUDs and DPTUD) dissolved in DMSO) (50 ∥M) for 12 h at 37° C. Following treatment, the cells were washed with PBS and fixed with 4% formaldehyde for 20 min at room temperature. Nucleus was stained with Hoechst diluted in PBS (1:10000). High-content microscopy and image analysis were performed to quantitate cell number (FIG. 3). All data are represented as mean±SD. The P-value was determined using one-way ANOVA with multiple comparisons w.r.t. DMSO. ns: P>0.05, *P<0.05, **P<0.01, ***P<0.001, ****P<0.0001.

[1] = tested on: EGF endocytosis in A549 cells; assay type: cell-based; conditions: 10 μM
[2] = tested on: transferrin endocytosis in A549 cells; assay type: cell-based; conditions: 10 μM
[3] = tested on: organelle acidification in A549 cells; assay type: cell-based; conditions: 10 μM, 1 h
[4] = tested on: cholera toxin B (CTXB) endocytosis in A549 cells; assay type: cell-based; conditions: 10 μM
IAV (WSN) [5] = assay type: in vivo, C57BL/6 mice
IAV (X-31) = assay type: cell-based, influenza A virus; conditions: 10 μM, A549 cells
[6] = tested on: SARS-CoV-2 Delta (B.1.617.2) and Omicron (B.1.1.529) strains; test: Infection of Vero-E6 cells with additional SARS-CoV-2 strains; assay type: cell-based
IAV (WSN) [7] = assay type: cell-based, influenza A virus
cellular endocytosis = conditions: cited from earlier work

In the case of `FC(F)(F)c1cc(NC(=S)Nc2cc(C(F)(F)F)cc(C(F)(F)F)c2)cc(C(F)(F)F)c1` [DPTUD, 1,3-bis(3,5-bis(trifluoromethyl)phenyl)thiourea], the “cytotoxicity” value (A549 cells; 50 μM, 12 h, A549 cells) is reported as “did not show cytotoxicity”, the EGF uptake [1] is reported as “significantly blocked” and the transferrin uptake [2] is reported as “significantly blocked”. For the same compound, the “organelle acidification (LysoTracker-positive signal)” value [3] was “robustly inhibited” and the “cholera toxin B (CTXB) uptake” value [4] was “significantly blocked”.

In the case of `O=C(Nc1cc(C(F)(F)F)cc(C(F)(F)F)c1)Nc1cc(C(F)(F)F)cc(C(F)(F)F)c1` [DPUD-1, 1,3-bis(3,5-bis(trifluoromethyl)phenyl)urea], the “body weight recovery of the infected mice” value (IAV (WSN) [5]; […], 1 mg/kg i.p. twice daily 5 days) is reported as “most effective”, the “lung viral titres (RT-PCR of NP gene and plaque assay)” value (IAV (WSN) [5]; mouse, in vivo) is reported as “significant reduction” and the “survival of infected mice” value (IAV (WSN) [5]; mouse, in vivo) is reported as “Better survival”. For the same compound, the “virus particle internalization in live cells” value (IAV (X-31)) was “majority of the virus particles failed to enter the cells”, the “effect on infection with SARS-CoV-2 Delta and Omicron” value [6] was “highly effective; also recorded: Reduced infection” and the “IAV (WSN) titre in virus plaque assay” value (IAV (WSN) [7]) was “significant reduction”.

In the case of `O=C(Nc1ccc(C(F)(F)F)cc1)Nc1ccc(C(F)(F)F)cc1` [DPUD-2, 1,3-bis(4-(trifluoromethyl)phenyl)urea], the “effect on infection with SARS-CoV-2 Delta and Omicron” value [6] is reported as “highly effective; also recorded: Reduced infection”.

In the case of `O=C(Nc1cc(F)cc(F)c1)Nc1cc(F)cc(F)c1` [DPUD-16, 1,3-bis(3,5-difluorophenyl)urea], the “effect on infection with SARS-CoV-2 Delta and Omicron” value [6] is reported as “Reduced infection”.

In the case of `O=C(Nc1ccc(OC(F)(F)F)cc1)Nc1ccc(OC(F)(F)F)cc1` [DPUD-20, 1,3-bis(4-(trifluoromethoxy)phenyl)urea], the “effect on infection with SARS-CoV-2 Delta and Omicron” value [6] is reported as “Reduced infection”.

In the case of `O=C(Nc1cc(Br)cc(Br)c1)Nc1cc(Br)cc(Br)c1` [DPUD-23, 1,3-bis(3,5-dibromophenyl)urea], the “effect on infection with SARS-CoV-2 Delta and Omicron” value [6] is reported as “highly effective; also recorded: Reduced infection”.

For `CN(C)CCCN1c2ccccc2Sc2ccc(Cl)cc21` [chlorpromazine, reference compound], the cytotoxicity (A549 cells; human) is given as greater than 75% and the “inhibitory concentration of known endocytosis inhibitor” value (cellular endocytosis; 7× higher than the derivatives) is given as 70 µM.

For methyl-β-cyclodextrin, the “inhibitory concentration of known endocytosis inhibitor” value (cellular endocytosis; 100× higher than the derivatives) is listed as 1000 µM.

From patent US20240116863A1, “DIPHENYL THIOUREA AND DIPHENYL UREA DERIVATIVES AS INHIBITORS OF ENDOCYTOSIS” (priority 2022, published 2024)
